# Assay results as given in publication PMC4818757, “Small molecule inhibitors of the Dishevelled‐CXXC5 interaction are new drug candidates for bone anabolic osteoporosis therapy” (EMBO Molecular Medicine, 2016).
# Where two headings read alike, the source gives them in different places.
# What was measured:
# MC3T3E1 cells = assay: Relative ALP activity in MC3T3E1 cells; format: cell-based, murine; conditions: differentiation media, 10 M of each compound, 4 days
# Excerpt: Railo et Rev: [NT] al, 2009 Fos-like antigen 1 […] et al, 2003 WNT1 inducible [NT] Railo et signaling pathway Rev: [NT] al, 2009 protein 1 (Wis p1) Activating […] transcription factor Rev: […], 4 (Atf 4) 2007 Cyclin-dependent [NT] Donovan TGFβ kinase inhibitor 1B Rev: [NT] et al, 2002 (Cdkn1b) […] membrane Rev: […], protein 1 (Emp1) 2007 8
# Dvl–CXXC5 interaction = biological target: T1, Dvl–CXXC5 interaction (Homo sapiens, UniProt O14640); assay: Dvl–CXXC5 in vitro binding assay (FITC PolyR-DBM competition)
# T1 construct: plasmid DNA encoding Dvl-1247- 341 (the Dvl PDZ domain); His-tag (TEV-cleavable) (cleaved yes); made in house; host or cells: E. coli BL21 (DE3)
# T1 sequence (O14640 247-341 limits assumed): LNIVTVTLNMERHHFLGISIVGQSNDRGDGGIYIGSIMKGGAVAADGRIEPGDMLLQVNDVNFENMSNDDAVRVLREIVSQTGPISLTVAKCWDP
# Excerpt: We tried to search small‐molecule drug candidates activating the Wnt/β‐catenin signaling on the basis of the previous study (Kim et al, 2015). To screen small molecules inhibiting the Dvl–CXXC5 interaction, an in vitro assay system (Fig 1A) was established using purified recombinant Dvl PDZ domain and FITC‐conjugated PolyR‐DBM (Dvl binding motif) (Kim et al, 2015). A chemical with inhibitory activity of Dvl–CXXC5 interaction competes with the FITC‐conjugated peptide for binding to Dvl PDZ domain, which results in a decrease in fluorescence intensity of the well containing the chemical (Fig 1A).
# Figure 1 Identification and characterization of small molecules competing Dvl–CXXC5 binding in vitro • A A scheme for in vitro screening method of small molecules competing Dvl–CXXC5 binding. Briefly, purified Dvl PDZ domain was attached to the polystyrene surface of each well of 96‐well plates. Then, PolyR‐DBM (polyarginine‐conjugated Dvl binding motif tagged with FITC) (Kim et al, 2015) was added to each well and allowed to bind to the Dvl PDZ domain; 10 μM small‐molecule compound was added to each well, and the compounds competing with Dvl PZD‐PolyR‐DBM binding were measured by a microplate reader to screen the compounds reducing fluorescence signal. • B Screening results of compounds competing Dvl–CXXC5 interaction. Each 2 μM of the compounds was used for competing as described in Fig 1A. (n = 3) • C, D Primary calvaria cells were treated with 2 μM of each compound for 2 days. The cells were subjected to immunofluorescence analyses to visualize β‐catenin (C; green). The relative numbers of β‐catenin‐positive nuclei were counted (D). (n = 3) • E, F The calvariae from 4‐day‐old mice were cultured ex vivo for 7 days with 2 μM of each compound. Representative calvaria sections were visualized by H&E staining (E). The calvaria thicknesses were measured from the images using Image Pro software (F). (n = 3) Data Information: For B, D, and F, the data are the mean ± s.d. (error bars), and significance was assessed using unpaired Student's t‐test.
# For the Dvl–CXXC5 in vitro binding assay, 100 μl of 5 mg/ml purified Dvl PDZ domain was added into each well of a 96‐well Maxibinding Immunoplate (SPL, Seoul, Korea) and incubated overnight in a 4°C chamber. […] After washing with PBS, the fluorescence of each well was measured using a Fluorstar Optima microplate reader (BGM Lab Technologie, Ortenberg, Germany). […]
# a The Dvl-CXXC5 in vitro binding assay was performed with 0.1, 1, 3, 10, 30 and 100 µ M of each compound. The IC50 values were calculated using linear regression. b MC3T3E1 cells were cultured in differentiation media with 10 µM of each compound for 4 days and ALP activity levels were quantified to monitor osteogenic differentiation of the cells. […]
# Dvl PDZ domain = biological target: T2, Dvl PDZ domain (Homo sapiens, UniProt O14640); assay: Surface plasmon resonance; format: binding
# T2 construct: plasmid DNA encoding Dvl-1247- 341 (the Dvl PDZ domain); His-tag (TEV-cleavable) (cleaved yes); made in house; host or cells: E. coli BL21 (DE3)
# T2 sequence (O14640 247-341 limits assumed): T1 sequence (O14640 247-341 limits assumed)
# Procedure: Studies on the interaction between compounds and Dvl PDZ domain were performed by surface plasmon resonance spectroscopy using the ProteOn™ XPR36 protein interaction array system (Bio‐Rad Laboratories, Inc., Hercules, CA). Purified Dvl PDZ domain was immobilized on a sensor chip, and then, various concentration of KY‐02327 in ProteOn PBS/Tween running buffer (PBS, pH 7.4 with 0.05% Tween 20) was flowed over the chip at a flow rate of 100 μl/min. The refractive index reflecting the mass concentration on the sensor surface is measured according to the manufacturer's instruction. Data were analyzed using ProteOn Manager Software 2.0 (Bio‐Rad Laboratories, Inc.).
reduction of fluorescence intensity (Dvl–CXXC5 interaction; 2 μM compound) [%],IC50 (Dvl–CXXC5 interaction; read-out: 50% inhibition concentration (IC50) of Dvl–CXXC5 interaction) [µM],Compound,Relative ALP activity (%) (MC3T3E1 cells),"IC50 (Dvl–CXXC5 interaction; 0.1, 1, 3, 10, 30 and 100 µM of each compound, linear regression, read-out: Dvl-CXXC5 in vitro binding IC50) [µM]","IC50 for inhibition of Dvl–CXXC5 interaction, fold lower than for KY‐02061 (Dvl–CXXC5 interaction; vs KY‐02061) [fold]",binding to Dvl PDZ domain by surface plasmon resonance (Dvl PDZ domain)
–,–,CCOC(=O)c1cc2cc(O)ccc2n1CC(=O)NCCN1CCCCC1 [KY‐02327],227,3.1,7.7,binds with Dvl PDZ domain in a dose‐dependent manner
43.7,24,CCOC(=O)Cn1c(C(=O)OCC)cc2cc(OS(=O)(=O)c3ccc(C)cc3)ccc21 [KY‐02061],173,–,–,–
